Patent US20260216180A1, “QUINOLINE DERIVATIVE COMPOUNDS OR PHARMACEUTICALLY ACCEPTABLE SALT THEREOF, PREPARATION METHOD THEREFOR AND USE THEREOF” (JIANGSU CAREPHAR PHARMACEUTICAL CO.,LTD., priority 2023, published 2026)

Tested on: miR-124
Test: Regulation of miR-124 expression in a PBMC in vitro model (qPCR)
Type: cell-based
Details: 5 μM test compound, 24 h, human PBMC stimulated with PHA-L and IL-2; miR-191 internal reference; read-out: Relative expression of miR-124, fold change compared with DMSO-treated cells
Description: Pharmacological Activity Test: Regulation of miR-124 Expression by the Quinoline Derivatives in a PBMC In Vitro Model
• a. human PBMC cells • b. PHA-L • c. IL-2 • d. mirVana™ miRNA Extraction kit • e. TaqMan Advanced miRNA cDNA Synthesis Kit • f. TaqMan Fast Gene Expression Master Mix • g. TaqMan Advanced miRNA Assay (mir191) • h. TaqMan Advanced miRNA Assay (mir124)
Human PBMC cells were resuscitated. The cell suspension was transferred to a 75 cm^2 culture flask containing 13 mL of culture medium. The cells were cultured overnight in a 37° C., 5% CO2 incubator. The cell suspension was then collected in a conical flask, centrifuged at 1200 rpm for 5 minutes, and the supernatant was discarded. The cells were resuspended in 1 mL of fresh culture medium, and then the cell clumps were gently blown apart and inoculated into a 6-well plate at a density of 4*10^6 cells/mL. 5 μg/mL PHA-L and 10 ng/mL IL-2 were added to each well. The cells were incubated in the incubator for 48 hours. 5 μM of the test compound was added to each well of a 6-well plate, and 0.1% DMSO was added to the blank control wells, and the plate was incubated at 37° C. for 24 h. Cells were collected, Total RNA was isolated and extracted according to the procedure of the mirVana™ miRNA Extraction Kit, and cDNA was prepared according to the procedure of the TaqMan Advanced miRNA cDNA Synthesis Kit. MiR-191 was used as the internal reference gene for qPCR test.
That is, RNA sample→poly (A) tailing reaction→adapter reaction→reverse transcription (RT) reaction→miR-amplification reaction→qPCR test.
The qPCR procedure includes: 50° C. 2 min; 95° C. 20 s; 95° C. 1 s, a 60° C. 20 s, 40 cycles.
The relative gene expression was calculated using the following formula: ΔCt=Ct (miR-124)−Ct (miR-191)
Relative miRNA expression=2^−ΔCt.

## Fc1cc(Cl)c2nc(Nc3ccc(C4(C(F)(F)F)CC4)cc3)ccc2c1 [Compound 18, 8-chloro-6-fluoro-N-(4-(1-(trifluoromethyl)cyclopropyl)phenyl)quinolin-2-amine]
  fold induction at 5 µM: 125
